PubChem BioAssay (NCI)
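Each compound was tested at five concentrations against cells in 96-well plates for 48 hours. Here, GI50 denotes the concentration required for 50% inhibition of growth. TGI denotes the concentration required for complete inhibition of growth.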 Where a SMILES comes first, the peptide text is derived from it. Bridges are numbered along the chain shown (N, C = ends). [ ]: non-standard residue; d: D form. The star is where a group is joined. ξ: configuration not given here. ξDab(CH2SO3H) = NC(CCNCS(=O)(=O)O)C(=O)O; Heptanoyl(6-Me) = CC(C)CCCCC(=O)*; Dab = NCC[CH](N)C(=O)O

Tests used:
Assay in all cases: growth of human tumour cells (NCI), 48 h
SW-620 colon = tested on: SW-620 colon
OVCAR-8 ovarian = tested on: OVCAR-8 ovarian
UACC-257 melanoma = tested on: UACC-257 melanoma
CCRF-CEM leukemia = tested on: CCRF-CEM leukemia
MDA-MB-231 breast = tested on: MDA-MB-231 breast
SR leukemia = tested on: SR leukemia
U251 CNS = tested on: U251 CNS
TK-10 renal = tested on: TK-10 renal
SK-MEL-2 melanoma = tested on: SK-MEL-2 melanoma
SN12C renal = tested on: SN12C renal

Row | SMILES | GI50 (SW-620 colon) [µM] | TGI (SW-620 colon) [µM] | GI50 (OVCAR-8 ovarian) [µM] | TGI (OVCAR-8 ovarian) [µM] | GI50 (UACC-257 melanoma) [µM] | TGI (UACC-257 melanoma) [µM] | GI50 (CCRF-CEM leukemia) [µM] | TGI (CCRF-CEM leukemia) [µM] | GI50 (MDA-MB-231 breast) [µM] | TGI (MDA-MB-231 breast) [µM] | GI50 (SR leukemia) [µM] | TGI (SR leukemia) [µM] | GI50 (U251 CNS) [µM] | TGI (U251 CNS) [µM] | GI50 (TK-10 renal) [µM] | TGI (TK-10 renal) [µM] | GI50 (SK-MEL-2 melanoma) [µM] | TGI (SK-MEL-2 melanoma) [µM] | TGI (SN12C renal) [µM] | GI50 (SN12C renal) [µM]
1 | CCCc1cc(=O)n2c(C(=O)Nc3cccc(C(=O)OCC)c3)c(C(=O)Nc3ccc(F)cc3)sc2n1 | 12 | > 140 | 3.63 | 15 | 54.1 | > 140 | > 140 | > 140 | 1.6 | 7.2 | 51.7 | > 140 | 3.55 | 48.6 | 5.72 | 22.1 | 6.83 | 27.6 | – | –
2 | Nc1nc(N)c(-c2ccccc2)c(C(=O)Nc2ccccc2)n1 | – | > 100 | – | > 100 | – | > 100 | – | > 100 | – | – | – | – | – | > 100 | – | > 100 | – | > 100 | > 100 | –
3 | CCCCCCn1c(-c2ccc(C(=O)O/N=C(\N)c3ccc4ccccc4c3)cc2)nc(-c2ccccc2)c1-c1ccccc1 | > 100 | > 100 | > 96.3 | > 100 | > 100 | > 100 | 1.51 | > 100 | 17.8 | > 100 | – | – | 7.64 | > 100 | 16 | > 88.5 | 25.6 | > 93.2 | > 100 | > 100
4 | CCC(O)C1Cc2c(C)cc3c(c2O1)C(=O)c1ccccc1C3=O (stereo unspecified) | – | > 100 | – | > 100 | – | > 100 | – | > 100 | – | – | – | > 100 | – | > 100 | – | > 100 | – | > 100 | > 100 | –
5 | CCCCNC(=O)C1C(=O)N(CCCC)C(=O)/C1=N\N (stereo unspecified) | – | > 100 | – | > 100 | – | > 100 | – | – | – | – | – | – | – | > 100 | – | > 100 | – | > 100 | > 100 | –
6 | C=C1C(=O)O[C@H]2[C@H]1CC/C(C=Nc1c(N)cc(C(F)(F)F)cc1C(F)(F)F)=C\CC[C@@]1(C)O[C@@H]21 | 1.23 | 2.95 | 1.79 | 9.85 | 1.59 | 3.14 | 0.55 | > 100 | 1.38 | 3.79 | 0.567 | 5.17 | 1.56 | 2.98 | 1.38 | 2.69 | 1.41 | 3.12 | – | –
7 | NC(N)=NC(N)=Nc1cnccn1 | – | > 100 | – | > 100 | – | > 100 | – | > 100 | – | > 100 | – | – | – | > 100 | – | > 100 | – | > 100 | > 100 | –
8 | COC(=O)c1ccccc1N1C(=O)Cc2ccccc2C1=O | – | > 100 | – | > 100 | – | > 100 | – | – | – | – | – | > 100 | – | > 100 | – | > 100 | – | > 100 | > 100 | –
9 | O=c1[nH]c(=O)c2cc3cc(C4CC(O)C(CO)O4)ccc3cc2[nH]1 (stereo unspecified) | > 100 | > 100 | > 100 | > 100 | > 100 | > 100 | > 100 | > 100 | 65.7 | > 100 | – | – | > 100 | > 100 | – | – | 11.3 | > 100 | > 100 | > 100
10 | Cc1ccc(NC(=O)c2cc3ccccc3c(N=Nc3cc(S(=O)(=O)O)ccc3O)c2O)c(C)c1 | – | > 100 | – | > 100 | – | > 100 | – | 19.6 | – | > 100 | – | – | – | > 100 | – | > 100 | – | 78.5 | > 100 | –
11 | NC1CCCCC1N.O=[Se]([O-])[O-].[Pt+4] (stereo unspecified) | 0.0901 | > 39.9 | 0.922 | > 100 | 2.18 | > 64.8 | 0.203 | 97.7 | – | – | – | – | 0.666 | 15.7 | 28.4 | > 100 | 6 | 31.1 | > 100 | 1.67
12 | CCOC(=O)NC/C=C/COC1CCCCO1 (stereo unspecified) | – | > 100 | – | > 100 | – | > 100 | – | > 100 | – | – | – | > 100 | – | > 100 | – | > 100 | – | > 100 | > 100 | –
13 | [Cl][Hg][c]1ccc(Cl)s1 | 1.04 | 2.59 | 2.51 | 6.25 | 1.54 | 3.04 | 0.326 | 3.99 | – | – | 0.319 | – | 0.91 | 2.71 | 1.66 | 3.09 | 4.65 | 17.6 | 8.19 | 2.95
14 | CN1CCC2(CC1)NC(=O)c1c(c3ccc(Cl)c(Cl)c3n1C)C2C#N (stereo unspecified) | 8.48 | 33.3 | 10.4 | 36.6 | 2.12 | 4.71 | 6.32 | > 54.8 | 5.19 | 15.2 | 1.65 | 5.36 | 11.1 | 26.2 | 10.5 | 23.4 | – | – | 31.2 | 5.82
15 | CCC(C)C1NC(=O)C(CCNCS(=O)(=O)O)NC(=O)C(NC(=O)C(CCNCS(=O)(=O)O)NC(=O)C(NC(=O)C(CCNCS(=O)(=O)O)NC(=O)CCCCC(C)C)C(C)O)CCNC(=O)C(C(C)O)NC(=O)C(CCNCS(=O)(=O)O)NC(=O)C(CCNCS(=O)(=O)O)NC(=O)C(C(C)CC)NC1=O (stereo unspecified) ({Heptanoyl(6-Me)}-[ξDab(CH2SO3H)]T[ξDab(CH2SO3H)][Dab][ξDab(CH2SO3H)]II[ξDab(CH2SO3H)][ξDab(CH2SO3H)]T; lactam 4-C; configuration not given here) | 4 | > 25 | 9.66 | > 25 | 11.7 | > 25 | – | – | 5.82 | > 25 | 1.32 | > 25 | 8.05 | > 25 | > 25 | > 25 | 4.9 | > 25 | > 25 | 11.2
16 | Cc1ccc(-c2cc3c4c(nc5ccccc53)C(=O)c3cccnc3-c4n2)cc1 | 5.7 | > 51.1 | 11.4 | 37.6 | 6.01 | 20.8 | 8.04 | > 100 | 16.8 | > 69.9 | – | – | 9.51 | > 66.9 | 26.4 | 97.3 | 15 | 38 | 30 | 14.4
